# Measurements reported in patent publication US20080009435A1, “Synthetic methods for aplidine and new antitumoral derivatives, methods of making and using them” (Pharma Mar, S.A., a Spain corporation, priority 2000, published 2008).
# Like-named read-outs stand apart in the source and are kept apart here. *1 amine or outer side, *2 acyl side, *3 side chain or, on linkers, in order; H or OH if unused. Where a SMILES comes first, the peptide text is derived from it. Bridges are numbered along the chain shown (N, C = ends). [ ]: non-standard residue; d: D form. The star is where a group is joined. X1 = CC[C@H](C)[C@@H](N[*:1])[C@@H](O)CC(=O)O[C@H](C(=O)[C@H](C)C(=O)[*:2])C(C)C; X2 = CC[C@H](C)[C@@H](N[*:1])[C@@H](O)CC(=O)[*:2]; NMeY = CN[C@@H](Cc1ccc(O)cc1)C(=O)O; dNMeL = CN[C@H](CC(C)C)C(=O)O; Hiv = CC(C)[C@H](O)C(=O)O; Pyruvoyl = CC(=O)C(=O)*
# Assays:
# [1] = doses near those required for therapeutic applications; cited from earlier work
# [2] = tested on: SK-OV-3 (Ovary); assay: IC50 Aplidine Family panel (MTT); format: cell-based
# [3] = tested on: FADU (Pharynx); assay: IC50 Aplidine Family panel (MTT/MTS); format: cell-based; conditions: read-out: IC50 (Molar) Pharynx FADU
# [4] = tested on: MC116 (Lymphoma, undifferentiated); assay: IC50 Aplidine Family panel (MTT/MTS); format: cell-based; conditions: read-out: IC50 (Molar) Lymphoma (undifferentiated) MC116
# [5] = tested on: 786-O (Renal); assay: IC50 Aplidine Family panel (MTT); format: cell-based
# [6] = tested on: 5637 (Bladder); assay: IC50 Aplidine Family panel (MTT/MTS); format: cell-based; conditions: read-out: IC50 (Molar) Bladder 5637
# [7] = tested on: PC-3 (Prostate); assay: IC50 Aplidine Family panel (MTT); format: cell-based; conditions: read-out: IC50 (Molar) Prostate PC-3
# [8] = tested on: HT-29 (Colon); assay: IC50 Aplidine Family panel (MTT/MTS); format: cell-based, human; conditions: read-out: IC50 (Molar) Colon HT-29
# [9] = tested on: PANC-1 (Pancreas); assay: IC50 Aplidine Family panel (MTT); format: cell-based
# [10] = tested on: U-937 (Lymphoma, Histiocytic); assay: IC50 Aplidine Family panel (MTT); format: cell-based
# [11] = tested on: K562 (CML, Chronic myelogenous); assay: IC50 Aplidine Family panel (MTT/MTS); format: cell-based; conditions: read-out: IC50 (Molar) CML (Chronic myelogenous) K562
# [12] = tested on: SW 694 (Fibrosarcoma); assay: IC50 Aplidine Family panel (MTT/MTS); format: cell-based; conditions: MTT; read-out: IC50 (Molar) Fibrosarcoma SW 694
# [13] = tested on: A549 (NSCL); assay: IC50 Aplidine Family panel (MTT/MTS); format: cell-based, human; conditions: MTT, read-out: IC50 (Molar) NSCL A549
# [14] = tested on: Hs746t (Gastric); assay: IC50 Aplidine Family panel (MTT/MTS); format: cell-based; conditions: read-out: IC50 (Molar) Gastric Hs746t
# [15] = tested on: Hut 78 (Lymphoma, Cutaneous T cell); assay: IC50 Aplidine Family panel (MTT); format: cell-based
# [16] = tested on: H9 (Lymphoma, T cell); assay: IC50 Aplidine Family panel (MTT/MTS); format: cell-based; conditions: MTT, read-out: IC50 (Molar) Lymphoma (T cell) H9
# [17] = tested on: P3HR1 (Lymphoma, Burkitts ascites); assay: IC50 Aplidine Family panel (MTT); format: cell-based
# [18] = tested on: Molt 3 (ALL, Acute lymphobalstic); assay: IC50 Aplidine Family panel (MTT/MTS); format: cell-based; conditions: read-out: IC50 (Molar) ALL (Acute lymphobalstic) Molt 3
# [19] = tested on: SK-HEP-1 (Liver); assay: IC50 Aplidine Family panel (MTT/MTS); format: cell-based; conditions: read-out: IC50 (Molar) Liver SK-HEP-1
# [20] = tested on: HL-60 (ALL, Promyelocytic leukemia); assay: IC50 Aplidine Family panel (MTT/MTS); format: cell-based; conditions: MTT, read-out: IC50 (Molar) ALL (Promyelocytic leukemia) HL-60
# [21] = tested on: MX-1 (Breast); assay: IC50 Aplidine Family panel (MTT/MTS); format: cell-based; conditions: MTT; read-out: IC50 (Molar) Breast MX-1
# [22] = tested on: CCRF-SB (ALL, B-cell); assay: IC50 Aplidine Family panel (MTT); format: cell-based; conditions: read-out: IC50 (Molar) ALL (B-cell) CCRF-SB
# [23] = tested on: MEL-28 human melanoma; assay: Cytotoxicity IC50 (after Berjeron et al); conditions: Homo sapiens, SK-MEL-28, read-out: Cytotoxicity of [aa3]-aplidine Congeners IC50 (Molar) MEL28
# Source text: (§1) Methodology: after Berjeron et al, Biochem and Bioph Res. Comm., 1984, 121, 3, 848-854.
# (§2) P388=Murine lymphoma. A549=human lung carcinoma. HT-29=human colon carcinoma. MEL-28=human melanoma.
# (§3) A549=human lung carcinoma. HT-29=human colon carcinoma. MEL-28=human melanoma.
# [24] = tested on: tumor cells; assay: In vitro antitumor activity; format: cell-based
# [25] = tested on: HT-29 human colon carcinoma; assay: Cytotoxicity IC50 (after Berjeron et al); conditions: Homo sapiens, HT-29, read-out: Cytotoxicity of [aa3]-aplidine Congeners IC50 (Molar) HT29
# Source text: as §1, §2, §3
# [26] = tested on: A549 human lung carcinoma; assay: Cytotoxicity IC50 (after Berjeron et al); conditions: Homo sapiens, A549, read-out: Cytotoxicity of [aa3]-aplidine Congeners IC50 (Molar) A549
# Source text: as §1, §2, §3
# [27] = tested on: P388 Murine lymphoma; assay: Cytotoxicity IC50 (after Berjeron et al); conditions: Mus musculus, P388, read-out: Cytotoxicity of [aa3]-aplidine Congeners IC50 (Molar) P388
# Source text: as §1, §2, §3
# [28] = tested on: NCI 60 cell panel; conditions: cited from earlier work
# [29] = tested on: protein biosynthesis; conditions: compared with III (didemnin B); cited from earlier work
# [30] = tested on: tumor cells (clonogenic assays); conditions: compared with III (didemnin B); cited from earlier work
# [31] = tested on: pancreatic carcinoma; conditions: compared with III (didemnin B); cited from earlier work
# [32] = tested on: OSA-FH (Osteosarcoma); assay: IC50 Aplidine Family panel (MTS); format: cell-based; conditions: MTS (new); read-out: IC50 (Molar) Osteosarcoma OSA-FH
# [33] = tested on: solid tumors like colon, chondrosarcoma and osteosarcoma; assay: MTS assay, specificity against solid tumors; format: cell-based; conditions: with respect to didemnin B (III)
# [34] = tested on: CHSA (Chondrosarcoma); assay: IC50 Aplidine Family panel (MTS); format: cell-based; conditions: MTS (new); read-out: IC50 (Molar) Chondrosarcoma CHSA
# [35] = tested on: Mel-28 (Melanoma); assay: IC50 Aplidine Family panel (MTS); format: cell-based; conditions: Homo sapiens, SK-MEL-28; MTS (new); read-out: IC50 (Molar) Melanoma Mel-28
# [36] = tested on: LNCAP (Prostate); assay: IC50 Aplidine Family panel (MTS); format: cell-based; conditions: Homo sapiens, MTS (new), read-out: IC50 (Molar) Prostate LNCAP
# [37] = tested on: ARH-77 (Leukemia, Plasma cell); assay: IC50 Aplidine Family panel (MTT); format: cell-based; conditions: Homo sapiens, read-out: IC50 (Molar) Leukemia (Plasma cell) ARH-77
molecule,measurement,setting,value
CC[C@H](C)[C@H]1NC(=O)[C@@H](NC(=O)[C@@H](CC(C)C)N(C)C(=O)[C@@H]2CCCN2C(=O)C(C)O)[C@@H](C)OC(=O)[C@H](Cc2ccc(OC)cc2)N(C)C(=O)[C@@H]2CCCN2C(=O)[C@H](CC(C)C)NC(=O)[C@@H](C)C(=O)[C@H](C(C)C)OC(=O)C[C@@H]1O (stereo partly shown) [Didemnin B],toxicity,[1],toxic at doses near those required for therapeutic applications
same,IC50,[2]; read-out: IC50 (Molar) Ovary SK-OV-3,0.163 µM
same,IC50,[3]; MTT,0.0979 µM
same,IC50,[4]; MTT,0.00884 µM
same,IC50,[5]; read-out: IC50 (Molar) Renal 786-O,0.29 µM
same,IC50,[6]; MTT,0.025 µM
same,IC50,[7],0.09 µM
same,IC50,[8]; MTT,0.0807 µM
same,IC50,[9]; read-out: IC50 (Molar) Pancreas PANC-1,0.000152 µM
same,IC50,[10]; read-out: IC50 (Molar) Lymphoma (Histiocytic) U-937,0.187 µM
same,IC50,[11]; MTT,3.31 µM
same,IC50,[12],3.28 µM
same,IC50,[13],121 µM
same,IC50,[14]; MTT,0.0066 µM
same,IC50,[15]; read-out: IC50 (Molar) Lymphoma (Cutaneous T cell) Hut 78,0.0356 µM
same,IC50,[16],0.213 µM
same,IC50,[17]; read-out: IC50 (Molar) Lymphoma (Burkitts ascites) P3HR1,0.0558 µM
same,IC50,[18]; MTT,0.545 µM
same,IC50,[19]; MTT,0.0921 µM
same,IC50,[20],0.144 µM
same,IC50,[21],1.54 µM
same,IC50,[22],0.655 µM
"CC[C@H](C)[C@H]1NC(=O)[C@@H](NC(=O)[C@@H](CC(C)C)N(C)C(=O)[C@@H]2CCCN2C(=O)C(C)=O)[C@@H](C)OC(=O)[C@H](Cc2ccc(OC)cc2)N(C)C(=O)[C@@H]2CCCN2C(=O)[C@H](CC(C)C)NC(=O)[C@H](C(C)C)NC(=O)C[C@@H]1O [SVPL1, [Val]^3-Aplidine] (Pyruvoyl-P[dNMeL]T[X2]VLP[NMeY](Me); ester 3-C)",IC50,[23],0.000113 µM
same,in vitro antitumor activity,[24],high level of in vitro antitumor activity
same,IC50,[25],0.000113 µM
same,IC50,[26],0.000113 µM
same,IC50,[27],0.000113 µM
[Hiv]^3-[L-Lac]^9-aplidine [9LSHPL1(L)],tumor type specificity in NCI 60 cell panel,[28],does not show any tumor type specificity
same,protein biosynthesis inhibition properties,[29],retains similar levels
same,in vitro antitumor activity in clonogenic assays,[30],retains similar levels of in vitro antitumor activity
same,in vitro activity against pancreatic carcinoma,[31],somewhat more active in vitro than III
"CC[C@H](C)[C@H]1NC(=O)[C@@H](NC(=O)[C@@H](CC(C)C)N(C)C(=O)[C@@H]2CCCN2C(=O)C(C)=O)[C@@H](C)OC(=O)[C@H](Cc2ccc(OC)cc2)N(C)C(=O)[C@@H]2CCCN2C(=O)[C@H](CC(C)C)NC(=O)[C@H](C(C)C)OC(=O)C[C@@H]1O [SHPL1, [Hiv]^3-Aplidine] (Pyruvoyl-P[dNMeL]T[X2][Hiv]LP[NMeY](Me); ester 3-C)",IC50,"[3]; Homo sapiens, FaDu, MTS (new)",0.0371 µM
same,IC50,"[4]; Homo sapiens, MC116, MTS (new)",0.382 µM
same,IC50,[23],0.000474 µM
same,IC50,[6]; MTS (new),0.0902 µM
same,IC50,"[8]; Homo sapiens, HT-29, MTS (new)",0.0102 µM
same,IC50,"[11]; Homo sapiens, K562, MTS (new)",0.521 µM
same,IC50,[32],0.00589 µM
same,specificity against solid tumors in the MTS assay,[33],"more specific against solid tumors like colon, chondrosarcoma and osteosarcoma"
same,IC50,"[14]; Homo sapiens, Hs746T, MTS (new)",0.0716 µM
same,IC50,"[18]; Homo sapiens, MOLT-3, MTS (new)",0.0177 µM
same,IC50,"[19]; Homo sapiens, SK-HEP1, MTS (new)",0.265 µM
same,IC50,[25],0.000474 µM
same,IC50,[34],0.00345 µM
same,IC50,[35],0.486 µM
same,IC50,[36],0.0146 µM
same,IC50,[26],0.000474 µM
same,IC50,[27],0.000474 µM
"CC[C@H](C)[C@H]1NC(=O)[C@@H](NC(=O)[C@@H](CC(C)C)N(C)C(=O)[C@@H]2CCCN2C(=O)C(C)=O)[C@@H](C)OC(=O)[C@H](Cc2ccc(OC)cc2)N(C)C(=O)[C@@H]2CCCN2C(=O)[C@H](CC(C)C)NC(=O)[C@@H](C)C(=O)[C@H](C(C)C)OC(=O)C[C@@H]1O [SAPL1, Aplidine] (Pyruvoyl-P[dNMeL]T[X1]LP[NMeY](Me); ester 3-C)",IC50,"[2]; Homo sapiens, SK-OV-3, read-out: IC50 (Molar) Ovary SK-OV-3",0.072 µM
same,IC50,"[3]; Homo sapiens, FaDu, MTT",0.0729 µM
same,IC50,"[4]; Homo sapiens, MC116, MTT",0.921 µM
same,IC50,[23],0.00045 µM
same,IC50,"[5]; Homo sapiens, 786-0, read-out: IC50 (Molar) Renal 786-O",0.0831 µM
same,IC50,[6]; MTT,0.0359 µM
same,IC50,"[8]; Homo sapiens, HT-29, MTT",0.687 µM
same,IC50,"[9]; Homo sapiens, PANC-1, read-out: IC50 (Molar) Pancreas PANC-1",0.17 µM
same,IC50,"[10]; Homo sapiens, U-937, read-out: IC50 (Molar) Lymphoma (Histiocytic) U-937",0.562 µM
same,IC50,"[11]; Homo sapiens, K562, MTT",0.572 µM
same,IC50,[12],1.49 µM
same,IC50,"[13]; Homo sapiens, A549",24 µM
same,IC50,"[14]; Homo sapiens, Hs746T, MTT",0.0252 µM
same,IC50,"[15]; Homo sapiens, HuT78, read-out: IC50 (Molar) Lymphoma (Cutaneous T cell) Hut 78",0.0447 µM
same,IC50,[16]; T-cell,0.525 µM
same,IC50,[37],0.178 µM
same,IC50,"[17]; Homo sapiens, P3HR-1, read-out: IC50 (Molar) Lymphoma (Burkitts ascites) P3HR1",0.0534 µM
same,IC50,"[18]; Homo sapiens, MOLT-3, MTT",0.595 µM
same,IC50,"[19]; Homo sapiens, SK-HEP1, MTT",0.0944 µM
same,IC50,"[20]; Homo sapiens, HL-60",0.0789 µM
same,IC50,[25],0.00045 µM
same,IC50,[21],0.167 µM
same,IC50,"[22]; Homo sapiens, CCRF-SB",0.472 µM
same,IC50,[26],0.00018 µM
same,IC50,[27],0.00018 µM
